Laboratory results from the kinase profiling compilation of Christmann-Franck et al. (2016).
Each block holds one compound with its values, some of them ahead of it.

Legend:
Test in all cases: radiometric filter-binding kinase assay
RIPK2 (human) = RIPK2 (human) (UniProt O43353)
MAP3K9 (human) = MAP3K9 (human) (UniProt P80192)
CLK2 (human) = CLK2 (human) (UniProt P49760)
AURKA (human) = AURKA (human) (UniProt O14965)
RPS6KA5 KD1 KD2 (human) = RPS6KA5 KD1 KD2 (human) (UniProt O75582)
RPS6KA1 KD1 KD2 (human) = RPS6KA1 KD1 KD2 (human) (UniProt Q15418)
MKNK2 (human) = MKNK2 (human) (UniProt Q9HBH9)
YES1 (human) = YES1 (human) (UniProt P07947)
MAPK11 (human) = MAPK11 (human) (UniProt Q15759)
NTRK1 (human) = NTRK1 (human) (UniProt P04629)
CSNK2A1 (human) = CSNK2A1 (human) (UniProt P68400)
IRAK4 (human) = IRAK4 (human) (UniProt Q9NWZ3)
INSR (human) = INSR (human) (UniProt P06213)
Chain of INSR (human) (P06213 whole entry, looked up): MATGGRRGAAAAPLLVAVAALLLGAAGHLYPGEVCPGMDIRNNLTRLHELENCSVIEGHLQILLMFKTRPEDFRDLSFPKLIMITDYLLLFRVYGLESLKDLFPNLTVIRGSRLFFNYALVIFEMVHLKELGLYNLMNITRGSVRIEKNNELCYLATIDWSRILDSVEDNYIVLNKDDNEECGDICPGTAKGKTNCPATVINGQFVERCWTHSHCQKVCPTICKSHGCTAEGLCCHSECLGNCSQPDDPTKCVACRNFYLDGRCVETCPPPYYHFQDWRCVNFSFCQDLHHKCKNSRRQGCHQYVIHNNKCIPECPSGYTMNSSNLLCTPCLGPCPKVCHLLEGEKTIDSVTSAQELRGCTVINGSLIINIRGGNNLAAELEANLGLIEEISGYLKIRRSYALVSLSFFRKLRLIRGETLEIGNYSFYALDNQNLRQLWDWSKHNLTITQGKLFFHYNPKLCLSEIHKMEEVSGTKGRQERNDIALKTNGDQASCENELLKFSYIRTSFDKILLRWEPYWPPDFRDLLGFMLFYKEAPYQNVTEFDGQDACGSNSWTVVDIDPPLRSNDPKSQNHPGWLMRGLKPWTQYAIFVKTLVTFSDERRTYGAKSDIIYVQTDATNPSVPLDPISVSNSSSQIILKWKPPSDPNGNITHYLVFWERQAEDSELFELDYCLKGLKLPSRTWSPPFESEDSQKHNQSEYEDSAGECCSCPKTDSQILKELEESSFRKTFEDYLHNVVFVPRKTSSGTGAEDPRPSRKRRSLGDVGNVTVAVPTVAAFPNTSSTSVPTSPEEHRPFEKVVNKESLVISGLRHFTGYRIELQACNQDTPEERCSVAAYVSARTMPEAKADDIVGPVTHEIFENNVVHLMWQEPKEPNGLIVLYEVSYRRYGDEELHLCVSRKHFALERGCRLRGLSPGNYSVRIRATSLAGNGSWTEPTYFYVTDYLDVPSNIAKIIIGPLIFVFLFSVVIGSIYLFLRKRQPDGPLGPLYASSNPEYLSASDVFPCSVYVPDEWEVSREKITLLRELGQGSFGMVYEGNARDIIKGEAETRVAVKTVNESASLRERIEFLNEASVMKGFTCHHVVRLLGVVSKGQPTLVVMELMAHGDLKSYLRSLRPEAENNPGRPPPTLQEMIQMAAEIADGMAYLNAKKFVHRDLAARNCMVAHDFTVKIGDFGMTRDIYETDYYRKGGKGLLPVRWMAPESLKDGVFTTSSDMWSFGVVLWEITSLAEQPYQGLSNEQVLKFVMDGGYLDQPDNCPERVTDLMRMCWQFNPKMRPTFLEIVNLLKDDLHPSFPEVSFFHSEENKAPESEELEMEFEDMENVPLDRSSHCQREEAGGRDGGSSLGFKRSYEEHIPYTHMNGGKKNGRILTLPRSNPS

HIPK2 (human) = HIPK2 (human) (UniProt Q9H2X6)
Chain of HIPK2 (human) (Q9H2X6 whole entry, looked up): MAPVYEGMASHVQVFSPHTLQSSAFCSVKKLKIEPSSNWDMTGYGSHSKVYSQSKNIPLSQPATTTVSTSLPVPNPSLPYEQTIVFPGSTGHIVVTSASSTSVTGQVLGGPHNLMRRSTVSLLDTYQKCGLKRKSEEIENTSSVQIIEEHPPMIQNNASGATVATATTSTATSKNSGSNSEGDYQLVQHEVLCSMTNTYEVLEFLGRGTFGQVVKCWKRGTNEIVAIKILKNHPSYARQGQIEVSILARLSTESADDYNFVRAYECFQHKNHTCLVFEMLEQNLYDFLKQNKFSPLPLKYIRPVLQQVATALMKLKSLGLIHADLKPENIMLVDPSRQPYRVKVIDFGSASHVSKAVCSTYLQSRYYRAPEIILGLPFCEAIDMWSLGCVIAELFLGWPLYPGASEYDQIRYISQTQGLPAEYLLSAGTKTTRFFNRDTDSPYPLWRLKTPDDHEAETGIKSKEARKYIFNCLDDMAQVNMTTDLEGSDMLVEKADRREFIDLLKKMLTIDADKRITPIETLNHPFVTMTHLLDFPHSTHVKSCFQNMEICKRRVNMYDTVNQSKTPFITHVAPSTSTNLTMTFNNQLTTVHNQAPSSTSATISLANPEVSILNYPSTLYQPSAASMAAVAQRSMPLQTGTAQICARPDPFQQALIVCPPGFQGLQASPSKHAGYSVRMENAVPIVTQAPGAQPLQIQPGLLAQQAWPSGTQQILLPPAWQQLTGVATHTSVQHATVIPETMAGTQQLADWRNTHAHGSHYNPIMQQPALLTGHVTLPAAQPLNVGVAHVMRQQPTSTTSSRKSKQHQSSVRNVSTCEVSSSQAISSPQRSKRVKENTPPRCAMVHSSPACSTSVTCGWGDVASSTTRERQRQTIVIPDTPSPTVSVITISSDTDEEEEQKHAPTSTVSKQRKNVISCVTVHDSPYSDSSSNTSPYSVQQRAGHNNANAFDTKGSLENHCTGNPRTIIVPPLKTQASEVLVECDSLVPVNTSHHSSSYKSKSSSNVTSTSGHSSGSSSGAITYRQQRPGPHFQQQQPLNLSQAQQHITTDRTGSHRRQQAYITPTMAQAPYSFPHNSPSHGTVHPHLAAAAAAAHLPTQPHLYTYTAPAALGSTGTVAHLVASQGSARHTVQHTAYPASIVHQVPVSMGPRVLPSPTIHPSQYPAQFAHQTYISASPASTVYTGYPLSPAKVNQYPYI

CSNK1D (human) = CSNK1D (human) (UniProt P48730)
MARK3 (human) = MARK3 (human) (UniProt P27448)
[1] = system: RPS6KB1 (human), P23443 [T412E]
NEK6 (human) = NEK6 (human) (UniProt Q9HC98)
Chain of NEK6 (human) (Q9HC98 whole entry, looked up): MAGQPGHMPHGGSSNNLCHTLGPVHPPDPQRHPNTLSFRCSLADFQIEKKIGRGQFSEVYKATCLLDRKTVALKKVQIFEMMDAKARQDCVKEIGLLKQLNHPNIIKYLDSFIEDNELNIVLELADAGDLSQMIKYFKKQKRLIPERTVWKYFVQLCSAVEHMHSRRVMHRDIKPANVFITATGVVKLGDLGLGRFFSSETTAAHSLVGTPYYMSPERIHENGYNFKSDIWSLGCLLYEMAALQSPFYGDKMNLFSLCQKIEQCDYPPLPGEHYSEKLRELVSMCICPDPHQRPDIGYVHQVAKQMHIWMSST

FLT1 (human) = FLT1 (human) (UniProt P17948)
MAPK1 (human) = MAPK1 (human) (UniProt P28482)
Chain of MAPK1 (human) (P28482 whole entry, looked up): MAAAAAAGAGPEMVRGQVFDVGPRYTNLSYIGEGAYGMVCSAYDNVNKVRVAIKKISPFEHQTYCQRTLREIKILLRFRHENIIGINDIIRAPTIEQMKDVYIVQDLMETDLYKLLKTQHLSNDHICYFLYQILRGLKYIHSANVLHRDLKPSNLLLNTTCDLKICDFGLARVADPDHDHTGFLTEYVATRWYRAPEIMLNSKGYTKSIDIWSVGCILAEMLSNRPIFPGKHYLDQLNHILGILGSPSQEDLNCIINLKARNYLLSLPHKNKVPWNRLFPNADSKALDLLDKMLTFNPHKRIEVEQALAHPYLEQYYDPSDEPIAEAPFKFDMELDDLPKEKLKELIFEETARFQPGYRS

[2] = molecular target: STK11 CAB39 STRADA (human) (UniProt Q9Y376+Q7RTN6+Q15831)
PRKCA (human) = PRKCA (human) (UniProt P17252)
NEK2 (human) = NEK2 (human) (UniProt P51955)
JAK2 JH1 JH2 (human) = JAK2 JH1 JH2 (human) (UniProt O60674)
MAPK14 (human) = MAPK14 (human) (UniProt Q16539)
[3] = system: AKT2 (human), P31751 [S474D]
MARK4 (human) = MARK4 (human) (UniProt Q96L34)
Chain of MARK4 (human) (Q96L34 whole entry, looked up): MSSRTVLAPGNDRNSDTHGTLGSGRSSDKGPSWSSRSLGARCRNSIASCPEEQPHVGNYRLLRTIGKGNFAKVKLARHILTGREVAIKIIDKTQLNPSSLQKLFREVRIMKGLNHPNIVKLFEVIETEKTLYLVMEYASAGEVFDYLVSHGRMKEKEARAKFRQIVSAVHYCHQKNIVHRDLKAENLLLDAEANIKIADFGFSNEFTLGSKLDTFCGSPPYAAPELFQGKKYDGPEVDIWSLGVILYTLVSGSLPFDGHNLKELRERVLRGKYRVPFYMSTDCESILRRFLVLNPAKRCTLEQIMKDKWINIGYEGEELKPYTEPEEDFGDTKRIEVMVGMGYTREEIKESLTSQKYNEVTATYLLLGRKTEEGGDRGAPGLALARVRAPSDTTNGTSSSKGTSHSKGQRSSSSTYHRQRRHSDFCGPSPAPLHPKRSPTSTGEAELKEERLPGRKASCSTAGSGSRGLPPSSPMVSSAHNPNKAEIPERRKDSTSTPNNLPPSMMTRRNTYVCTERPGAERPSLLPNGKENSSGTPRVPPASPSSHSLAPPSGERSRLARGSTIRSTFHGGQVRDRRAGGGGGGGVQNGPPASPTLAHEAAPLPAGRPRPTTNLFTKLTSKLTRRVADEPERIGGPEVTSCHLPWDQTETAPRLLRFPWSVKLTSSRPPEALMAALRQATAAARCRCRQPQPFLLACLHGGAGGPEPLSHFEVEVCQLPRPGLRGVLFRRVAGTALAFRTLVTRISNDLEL

SRPK1 (human) = SRPK1 (human) (UniProt Q96SB4)
BTK (human) = BTK (human) (UniProt Q06187)
MAP3K1 (human) = MAP3K1 (human) (UniProt Q13233)
HIPK1 (human) = HIPK1 (human) (UniProt Q86Z02)
DYRK2 (human) = DYRK2 (human) (UniProt Q92630)
MAPK15 (human) = MAPK15 (human) (UniProt Q8TD08)
MAPKAPK3 (human) = MAPKAPK3 (human) (UniProt Q16644)
Chain of MAPKAPK3 (human) (Q16644 whole entry, looked up): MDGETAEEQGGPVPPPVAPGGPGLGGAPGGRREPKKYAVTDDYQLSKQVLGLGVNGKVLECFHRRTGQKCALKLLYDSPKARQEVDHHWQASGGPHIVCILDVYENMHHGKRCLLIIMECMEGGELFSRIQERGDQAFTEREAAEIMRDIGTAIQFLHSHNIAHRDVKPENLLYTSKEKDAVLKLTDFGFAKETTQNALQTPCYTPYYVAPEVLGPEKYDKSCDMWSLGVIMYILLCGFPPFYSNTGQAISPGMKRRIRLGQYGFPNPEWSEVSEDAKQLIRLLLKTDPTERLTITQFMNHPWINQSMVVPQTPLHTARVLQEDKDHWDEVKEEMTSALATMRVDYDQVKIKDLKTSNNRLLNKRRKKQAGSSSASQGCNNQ

INSRR (human) = INSRR (human) (UniProt P14616)

residual activity (RIPK2 (human); compound 0.1 µM): 86%
residual activity (RIPK2 (human); compound 1.0 µM): 77%
residual activity (RIPK2 (human); compound 10.0 µM): 77%
residual activity (MAP3K9 (human); compound 0.1 µM): 105%
residual activity (MAP3K9 (human); compound 1.0 µM): 104%
residual activity (MAP3K9 (human); compound 10.0 µM): 99%
residual activity (CLK2 (human); compound 0.1 µM): 107%
residual activity (CLK2 (human); compound 1.0 µM): 71%
residual activity (CLK2 (human); compound 10.0 µM): 22%
residual activity (AURKA (human); compound 0.1 µM): 91%
residual activity (AURKA (human); compound 1.0 µM): 95%
residual activity (AURKA (human); compound 10.0 µM): 103%
residual activity (RPS6KA5 KD1 KD2 (human); compound 0.1 µM): 22%
residual activity (RPS6KA5 KD1 KD2 (human); compound 1.0 µM): 5%
residual activity (RPS6KA5 KD1 KD2 (human); compound 10.0 µM): 1%
residual activity (RPS6KA1 KD1 KD2 (human); compound 0.1 µM): 33%
residual activity (RPS6KA1 KD1 KD2 (human); compound 1.0 µM): 15%
residual activity (RPS6KA1 KD1 KD2 (human); compound 10.0 µM): 9%
residual activity (MKNK2 (human); compound 0.1 µM): 110%
residual activity (MKNK2 (human); compound 1.0 µM): 116%
residual activity (MKNK2 (human); compound 10.0 µM): 77%
residual activity (YES1 (human); compound 0.1 µM): 108%
residual activity (YES1 (human); compound 1.0 µM): 98%
residual activity (YES1 (human); compound 10.0 µM): 86%
residual activity (MAPK11 (human); compound 0.1 µM): 102%
residual activity (MAPK11 (human); compound 1.0 µM): 96%
residual activity (MAPK11 (human); compound 10.0 µM): 89%
residual activity (NTRK1 (human); compound 0.1 µM): 104%
residual activity (NTRK1 (human); compound 1.0 µM): 99%
residual activity (NTRK1 (human); compound 10.0 µM): 97%
residual activity (CSNK2A1 (human); compound 0.1 µM): 71%
residual activity (CSNK2A1 (human); compound 1.0 µM): 74%
residual activity (CSNK2A1 (human); compound 10.0 µM): 86%
residual activity (IRAK4 (human); compound 0.1 µM): 99%
residual activity (IRAK4 (human); compound 1.0 µM): 86%
residual activity (IRAK4 (human); compound 10.0 µM): 87%
residual activity (INSR (human); compound 0.1 µM): 99%
residual activity (INSR (human); compound 1.0 µM): 99%
residual activity (INSR (human); compound 10.0 µM): 99%
residual activity (HIPK2 (human); compound 0.1 µM): 112%
residual activity (HIPK2 (human); compound 1.0 µM): 82%
residual activity (HIPK2 (human); compound 10.0 µM): 43%
residual activity (CSNK1D (human); compound 0.1 µM): 102%
residual activity (CSNK1D (human); compound 1.0 µM): 91%
residual activity (CSNK1D (human); compound 10.0 µM): 61%
residual activity (MARK3 (human); compound 0.1 µM): 88%
residual activity (MARK3 (human); compound 1.0 µM): 87%
residual activity (MARK3 (human); compound 10.0 µM): 56%
residual activity ([1]; compound 0.1 µM): 16%
residual activity ([1]; compound 1.0 µM): 5%
residual activity ([1]; compound 10.0 µM): 4%
residual activity (NEK6 (human); compound 0.1 µM): 103%
residual activity (NEK6 (human); compound 1.0 µM): 101%
residual activity (NEK6 (human); compound 10.0 µM): 102%
residual activity (FLT1 (human); compound 0.1 µM): 103%
residual activity (FLT1 (human); compound 1.0 µM): 105%
residual activity (FLT1 (human); compound 10.0 µM): 83%
residual activity (MAPK1 (human); compound 0.1 µM): 113%
residual activity (MAPK1 (human); compound 1.0 µM): 117%
residual activity (MAPK1 (human); compound 10.0 µM): 115%
residual activity ([2]; compound 0.1 µM): 108%
residual activity ([2]; compound 10.0 µM): 57%
residual activity (PRKCA (human); compound 0.1 µM): 84%
residual activity (PRKCA (human); compound 1.0 µM): 70%
residual activity (PRKCA (human); compound 10.0 µM): 30%
residual activity (NEK2 (human); compound 0.1 µM): 98%
residual activity (NEK2 (human); compound 1.0 µM): 93%
residual activity (NEK2 (human); compound 10.0 µM): 106%
residual activity (JAK2 JH1 JH2 (human); compound 0.1 µM): 108%
residual activity (JAK2 JH1 JH2 (human); compound 1.0 µM): 103%
residual activity (JAK2 JH1 JH2 (human); compound 10.0 µM): 110%
residual activity (MAPK14 (human); compound 0.1 µM): 101%
residual activity (MAPK14 (human); compound 1.0 µM): 95%
residual activity (MAPK14 (human); compound 10.0 µM): 94%
residual activity ([3]; compound 0.1 µM): 101%
residual activity ([3]; compound 1.0 µM): 59%
residual activity ([3]; compound 10.0 µM): 38%
residual activity (MARK4 (human); compound 0.1 µM): 91%
residual activity (MARK4 (human); compound 1.0 µM): 103%
residual activity (MARK4 (human); compound 10.0 µM): 81%
residual activity (SRPK1 (human); compound 0.1 µM): 94%
residual activity (SRPK1 (human); compound 1.0 µM): 99%
residual activity (SRPK1 (human); compound 10.0 µM): 86%
residual activity (BTK (human); compound 0.1 µM): 92%
residual activity (BTK (human); compound 1.0 µM): 93%
residual activity (BTK (human); compound 10.0 µM): 112%
residual activity (MAP3K1 (human); compound 0.1 µM): 94%
residual activity (MAP3K1 (human); compound 1.0 µM): 93%
residual activity (MAP3K1 (human); compound 10.0 µM): 112%
residual activity (HIPK1 (human); compound 0.1 µM): 107%
residual activity (HIPK1 (human); compound 1.0 µM): 107%
residual activity (HIPK1 (human); compound 10.0 µM): 84%
residual activity (DYRK2 (human); compound 0.1 µM): 87%
residual activity (DYRK2 (human); compound 1.0 µM): 89%
residual activity (DYRK2 (human); compound 10.0 µM): 53%
residual activity (MAPKAPK3 (human); compound 0.1 µM): 98%
residual activity (MAPKAPK3 (human); compound 1.0 µM): 101%
residual activity (MAPKAPK3 (human); compound 10.0 µM): 97%
residual activity (INSRR (human); compound 0.1 µM): 71%
residual activity (INSRR (human); compound 1.0 µM): 49%
residual activity (INSRR (human); compound 10.0 µM): 21%
SMILES: CCn1c(-c2nonc2N)nc2cncc(CNC3CCNCC3)c21
residual activity (MAPK15 (human); compound 0.1 µM): 95%
residual activity (MAPK15 (human); compound 1.0 µM): 62%
residual activity (MAPK15 (human); compound 10.0 µM): 27%

residual activity (RIPK2 (human); compound 1.0 µM): 86%
residual activity (RIPK2 (human); compound 10.0 µM): 87%
residual activity (MAP3K9 (human); compound 1.0 µM): 95%
residual activity (MAP3K9 (human); compound 10.0 µM): 89%
residual activity (CLK2 (human); compound 1.0 µM): 120%
residual activity (CLK2 (human); compound 10.0 µM): 112%
residual activity (AURKA (human); compound 1.0 µM): 106%
residual activity (AURKA (human); compound 10.0 µM): 107%
residual activity (RPS6KA5 KD1 KD2 (human); compound 1.0 µM): 98%
residual activity (RPS6KA5 KD1 KD2 (human); compound 10.0 µM): 95%
residual activity (RPS6KA1 KD1 KD2 (human); compound 1.0 µM): 107%
residual activity (RPS6KA1 KD1 KD2 (human); compound 10.0 µM): 114%
residual activity (MKNK2 (human); compound 1.0 µM): 90%
residual activity (MKNK2 (human); compound 10.0 µM): 93%
residual activity (YES1 (human); compound 1.0 µM): 118%
residual activity (YES1 (human); compound 10.0 µM): 109%
residual activity (MAPK11 (human); compound 1.0 µM): 120%
residual activity (MAPK11 (human); compound 10.0 µM): 111%
residual activity (NTRK1 (human); compound 1.0 µM): 103%
residual activity (NTRK1 (human); compound 10.0 µM): 112%
residual activity (CSNK2A1 (human); compound 1.0 µM): 98%
residual activity (CSNK2A1 (human); compound 10.0 µM): 103%
residual activity (IRAK4 (human); compound 1.0 µM): 83%
residual activity (IRAK4 (human); compound 10.0 µM): 95%
residual activity (INSR (human); compound 1.0 µM): 110%
residual activity (INSR (human); compound 10.0 µM): 103%
residual activity (HIPK2 (human); compound 1.0 µM): 122%
residual activity (HIPK2 (human); compound 10.0 µM): 106%
residual activity (CSNK1D (human); compound 1.0 µM): 97%
residual activity (CSNK1D (human); compound 10.0 µM): 102%
residual activity (MARK3 (human); compound 1.0 µM): 108%
residual activity (MARK3 (human); compound 10.0 µM): 108%
residual activity ([1]; compound 1.0 µM): 115%
residual activity ([1]; compound 10.0 µM): 111%
residual activity (NEK6 (human); compound 1.0 µM): 99%
residual activity (NEK6 (human); compound 10.0 µM): 91%
residual activity (FLT1 (human); compound 1.0 µM): 100%
residual activity (FLT1 (human); compound 10.0 µM): 107%
residual activity (MAPK1 (human); compound 1.0 µM): 95%
residual activity (MAPK1 (human); compound 10.0 µM): 97%
residual activity ([2]; compound 1.0 µM): 103%
residual activity ([2]; compound 10.0 µM): 95%
residual activity (PRKCA (human); compound 10.0 µM): 118%
residual activity (NEK2 (human); compound 1.0 µM): 107%
residual activity (NEK2 (human); compound 10.0 µM): 95%
residual activity (JAK2 JH1 JH2 (human); compound 1.0 µM): 103%
residual activity (JAK2 JH1 JH2 (human); compound 10.0 µM): 90%
residual activity (MAPK14 (human); compound 1.0 µM): 102%
residual activity (MAPK14 (human); compound 10.0 µM): 83%
residual activity ([3]; compound 1.0 µM): 99%
residual activity ([3]; compound 10.0 µM): 91%
residual activity (MARK4 (human); compound 10.0 µM): 74%
residual activity (SRPK1 (human); compound 1.0 µM): 95%
residual activity (SRPK1 (human); compound 10.0 µM): 89%
residual activity (BTK (human); compound 1.0 µM): 119%
residual activity (BTK (human); compound 10.0 µM): 115%
residual activity (MAP3K1 (human); compound 1.0 µM): 106%
residual activity (MAP3K1 (human); compound 10.0 µM): 103%
residual activity (HIPK1 (human); compound 1.0 µM): 118%
residual activity (HIPK1 (human); compound 10.0 µM): 103%
residual activity (DYRK2 (human); compound 1.0 µM): 107%
residual activity (DYRK2 (human); compound 10.0 µM): 98%
residual activity (MAPKAPK3 (human); compound 1.0 µM): 92%
residual activity (MAPKAPK3 (human); compound 10.0 µM): 84%
residual activity (INSRR (human); compound 1.0 µM): 104%
residual activity (INSRR (human); compound 10.0 µM): 99%
SMILES: Cc1ccc(=O)n(-c2ccccc2)c1
residual activity (MAPK15 (human); compound 1.0 µM): 95%
residual activity (MAPK15 (human); compound 10.0 µM): 86%
